Reference: US8124774B2, “Therapeutic ((phenyl)imidazolyl)methylquinolinyl compounds” (Allergan, Inc., priority 2007, dated 2012)

Assays:
Format in all cases: cell-based
alpha2A receptor = target: T1, alpha2A receptor (Homo sapiens, UniProt P08913); assay: RSAT assay (Receptor Selection and Amplification Technology), alpha2A; settings: value in parentheses; ratio of maximal effect to that of standard full agonist brimonidine (UK14304)
T1 construct: expressed in transfected cells; host or cells: NIH-3T3
T1 sequence (P08913 1-465): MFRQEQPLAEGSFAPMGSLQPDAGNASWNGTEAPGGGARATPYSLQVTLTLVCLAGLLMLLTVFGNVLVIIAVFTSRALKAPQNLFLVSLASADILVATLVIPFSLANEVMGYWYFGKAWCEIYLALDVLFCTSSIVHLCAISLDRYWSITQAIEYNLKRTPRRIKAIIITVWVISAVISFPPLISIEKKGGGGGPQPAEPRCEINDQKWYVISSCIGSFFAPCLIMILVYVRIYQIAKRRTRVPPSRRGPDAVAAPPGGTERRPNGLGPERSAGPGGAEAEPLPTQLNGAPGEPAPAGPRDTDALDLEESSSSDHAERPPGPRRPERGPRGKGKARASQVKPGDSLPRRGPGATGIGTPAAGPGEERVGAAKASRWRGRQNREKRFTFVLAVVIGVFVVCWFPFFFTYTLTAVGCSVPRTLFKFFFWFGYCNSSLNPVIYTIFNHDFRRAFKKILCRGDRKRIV
Method: (§1) Receptor Selection and Amplification Technology (RSAT) Assay
(§2) The RSAT assay measures a receptor-mediated loss of contact inhibition that results in selective proliferation of receptor-containing cells in a mixed population of confluent cells. The increase in cell number is assessed with an appropriate transfected marker gene such as β-galactosidase, the activity of which can be easily measured in a 96-well format. Receptors that activate the G protein, Gq, elicit this response. Alpha2 receptors, which normally couple to Gi, activate the RSAT response when coexpressed with a hybrid Gq protein that has a Gi receptor recognition domain, called Gq/i5.
NIH-3T3 cells are plated at a density of 2×10^6 cells in 15 cm dishes and maintained in Dulbecco's modified Eagle's medium supplemented with 10% calf serum. […] After washing with phosphate-buffered saline, β-galactosidase enzyme activity is determined by adding 200 μl of the chromogenic substrate (consisting of 3.5 mM o-nitrophenyl-β-D-galactopyranoside and 0.5% nonidet P-40 in phosphate buffered saline), incubating overnight at 30° C. and measuring optical density at 420 nm. The absorbance is a measure of enzyme activity, which depends on cell number and reflects a receptor-mediated cell proliferation. […]

alpha2B receptor = target: T2, alpha2B receptor (Homo sapiens, UniProt P18089); assay: RSAT assay (Receptor Selection and Amplification Technology), alpha2B; settings: for EC50: NIH-3T3 cells cotransfected with receptor and Gq/i5, read-out: Alpha 2B potency EC50; for Alpha 2B intrinsic activity (efficacy): value in parentheses, ratio of maximal effect to that of standard full agonist brimonidine (UK14304)
T2 construct: expressed in transfected cells; host or cells: NIH-3T3
T2 sequence (P18089 1-450): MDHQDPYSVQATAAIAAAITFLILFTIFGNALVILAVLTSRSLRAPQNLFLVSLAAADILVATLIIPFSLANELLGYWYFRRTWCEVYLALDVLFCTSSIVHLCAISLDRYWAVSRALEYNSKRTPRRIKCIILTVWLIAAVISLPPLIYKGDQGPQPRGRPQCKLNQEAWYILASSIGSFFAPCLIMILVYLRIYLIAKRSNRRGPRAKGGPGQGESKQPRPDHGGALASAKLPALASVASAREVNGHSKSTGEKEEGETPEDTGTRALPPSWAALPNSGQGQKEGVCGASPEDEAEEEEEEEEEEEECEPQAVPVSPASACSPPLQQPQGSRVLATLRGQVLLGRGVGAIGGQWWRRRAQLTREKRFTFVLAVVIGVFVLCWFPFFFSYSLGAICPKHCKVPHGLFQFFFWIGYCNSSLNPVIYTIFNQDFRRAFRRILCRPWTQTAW
Method: as §1, §2
(§3) NIH-3T3 cells are plated at a density of 2×10^6 cells in 15 cm dishes and maintained in Dulbecco's modified Eagle's medium supplemented with 10% calf serum. One day later, cells are cotransfected by calcium phosphate precipitation with mammalian expression plasmids encoding p-SV-β-galactosidase (5-10 μg), receptor (1-2 μg) and G protein (1-2 μg). 40 μg salmon sperm DNA may also be included in the transfection mixture. Fresh media is added on the following day and 1-2 days later, cells are harvested and frozen in 50 assay aliquots. Cells are thawed and 100 μl added to 100 μl aliquots of various concentrations of drugs in triplicate in 96-well dishes. Incubations continue 72-96 hr at 37° C. After washing with phosphate-buffered saline, β-galactosidase enzyme activity is determined by adding 200 μl of the chromogenic substrate (consisting of 3.5 mM o-nitrophenyl-β-D-galactopyranoside and 0.5% nonidet P-40 in phosphate buffered saline), incubating overnight at 30° C. and measuring optical density at 420 nm. The absorbance is a measure of enzyme activity, which depends on cell number and reflects a receptor-mediated cell proliferation. The efficacy or intrinsic activity is calculated as a ratio of the maximal effect of the drug to the maximal effect of a standard full agonist for each receptor subtype. Brimonidine, also called UK14304, the chemical structure of which is shown below, is used as the standard agonist for the alpha2A, alpha2B and alpha2c receptors. The EC50 is the concentration at which the drug effect is half of its maximal effect.
(§4) EC50 values are nanomolar. ND stands for “not determinable” at concentrations less than 10 micromolar. IA stands for “intrinsic activity.”

alpha2c receptor = target: T3, alpha2c receptor (Homo sapiens, UniProt P18825); assay: RSAT assay (Receptor Selection and Amplification Technology), alpha2C; settings: for EC50: NIH-3T3 cells cotransfected with receptor and Gq/i5, read-out: Alpha 2C potency EC50; for Alpha 2C intrinsic activity (efficacy): value in parentheses, ratio of maximal effect to that of standard full agonist brimonidine (UK14304)
T3 construct: expressed in transfected cells; host or cells: NIH-3T3
T3 sequence (P18825 1-462): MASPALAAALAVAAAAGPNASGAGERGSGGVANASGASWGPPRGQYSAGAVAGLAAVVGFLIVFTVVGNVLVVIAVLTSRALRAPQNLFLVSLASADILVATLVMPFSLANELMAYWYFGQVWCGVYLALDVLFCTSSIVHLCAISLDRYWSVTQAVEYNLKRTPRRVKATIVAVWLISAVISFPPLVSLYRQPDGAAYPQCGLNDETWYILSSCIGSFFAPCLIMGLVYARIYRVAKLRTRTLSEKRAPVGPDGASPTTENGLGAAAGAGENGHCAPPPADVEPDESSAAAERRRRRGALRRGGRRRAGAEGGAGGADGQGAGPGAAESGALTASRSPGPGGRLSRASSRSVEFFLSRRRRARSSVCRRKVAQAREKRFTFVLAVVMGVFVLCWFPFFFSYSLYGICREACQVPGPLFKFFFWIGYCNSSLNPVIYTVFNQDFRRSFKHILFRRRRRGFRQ
Method: as §1, §2, §3, §4

SMILES	Alpha 2A intrinsic activity (efficacy) (alpha2A receptor)	EC50 (alpha2B receptor)	Alpha 2B intrinsic activity (efficacy) (alpha2B receptor)	EC50 (alpha2c receptor)	Alpha 2C intrinsic activity (efficacy) (alpha2c receptor)
c1ccc(C(c2cnc[nH]2)c2cccc3ncccc23)cc1 (stereo not shown) [5-((1H-imidazol-5-yl)(phenyl)methyl)quinoline]	0.12	0.319 µM	0.89	0.05 µM	0.33
c1ccc(C(c2cnc[nH]2)c2cccc3cccnc23)cc1 (stereo not shown) [8-((1H-imidazol-5-yl)(phenyl)methyl)quinoline]	0.09	0.023 µM	1.16	0.832 µM	0.61
